Common to all, as to assay: area under concentration-response curve (viability) (AUC (a.u.)); higher = less active
Conditions in all cases: 48 h

In test [1] the test system is CU-ACC1. In a few lines: (§1)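 Cells from three adrenocortical carcinoma lines were seeded at 500–1,000 cells/well in 5 µL medium in 1,536-well plates. Each library compound was added as 23 nL at 11 concentrations, and after 48 h CellTiter-Glo was added for 15 minutes at room temperature before reading luminescence. Plate-wise normalisation to vehicle and empty-well controls preceded curve fitting. AC50 and area under the curve were calculated only for inhibitory or non-responding curve classes.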

The subject of test [2] is CU-ACC2. In outline:
as §1

Test [3] has as its system NCI-H295R. In a few lines:
as §1

This is an account of results in the supplement of paper PMC10949913.

Each structure is given as a SMILES string.

On to `O=C(CBr)N1CC([N+](=O)[O-])([N+](=O)[O-])C1`, for which the “area under concentration-response curve” value in test [1] came out at 454; in test [2], 464; in test [3], 439.

With `Cc1[nH]c(/C=C2\C(=O)Nc3ccc(F)cc32)c(C)c1C(=O)NC[C@H](O)CN1CCOCC1`, the “area under concentration-response curve” value in test [1] turned out to be 525; in test [2] it was 601; in test [3], 539.

For the compound `OC[C@H]1O[C@H](C[C@@H]1O)N2\C=C(\I)C(=O)NC2=O`, the “area under concentration-response curve” value in test [1] is 496; in test [2], 543; in test [3], 501.

For `Cn1cc(-c2c[nH]c3ncnc(N4CCOCC4)c23)cn1`, the “area under concentration-response curve” value in test [1] was determined as 543; in test [2] it was 610; in test [3], 576.

Consider `CN1CCC(CC1)COC2=CN=C(N=C2)C3=CC(=CC=C3)CN4/N=C(\C=C/C4=O)C5=CC(=CC=C5)C#N`, for which the “area under concentration-response curve” value stood at 474 in test [1], 596 in test [2] and 549 in test [3].

Take `CCC(C)CCCCC(=O)N[C@@H](CCN)C(=O)NC(C(=O)N[C@H](CCN)C(=O)N[C@@H]1CCNC(=O)C([C@@H](C)O)NC(=O)[C@@H](CCN)NC(=O)[C@@H](CCN)NC(=O)[C@@H](CC(C)C)NC(=O)[C@H](Cc2ccccc2)NC(=O)[C@H](CCN)NC1=O)[C@@H](C)O` (stereo not given in full): the entries for the “area under concentration-response curve” value in test [1], in test [2] and in test [3] were 505, 631 and 553, respectively.

Regarding `COc1nc(-c2ccc3c(c2)OCO3)n(-c2ccc(NC(=O)CSc3ccccc3)cc2)n1`, the “area under concentration-response curve” value worked out at 408 in test [1], 611 in test [2] and 573 in test [3].

Turning to `Cc1ncc([N+](=O)[O-])n1CC(C)O` (stereo not given), the “area under concentration-response curve” value in test [1] was found to be 554; in test [2], 644; in test [3], 566.

As for `C[C@H]1CC[C@H](n2c3cnccc3c3cnc(Nc4ccc5c(n4)CCN(C(=O)CO)C5)nc32)CC1`, the “area under concentration-response curve” value in test [1] is 601; in test [2], 622; in test [3], 596.

On to `C[C@H]1CN(CCN1C2=CN=C(NC/3=C/C(=C\N(C)C3=O)C4=CC=NC(=C4CO)N5CC[N]6C7=C(CC(C)(C)C7)C=C6C5=O)C=C2)C8COC8`, for which the “area under concentration-response curve” value in test [1] was 532; in test [2], 618; in test [3], 560.

As for `OC(=O)\C1=C\N(C2CC2)C3=CC(=C(F)C=C3C1=O)N4CCNCC4`, the entries for the “area under concentration-response curve” value in test [1], in test [2] and in test [3] were 571, 693 and 561, respectively.

Turning to `CC(C)(Sc1ccc(CCN(CCCCC2CCCCC2)C(=O)NC2CCCCC2)cc1)C(=O)O`, the “area under concentration-response curve” value worked out at 506 in test [1], 585 in test [2] and 501 in test [3].

In the case of `CNCC(O)c1ccc(O)cc1` (stereo not given), the “area under concentration-response curve” value in test [1] is 565; in test [2] it was 618; in test [3], 579.

Take `O=C1\C=C/C=C2/[C@H]3CNC[C@H](C3)CN12`: the “area under concentration-response curve” value worked out at 593 in test [1], 663 in test [2] and 576 in test [3].

For the compound `CC(C)C(=O)Nc1ccc([N+](=O)[O-])c(C(F)(F)F)c1`, the “area under concentration-response curve” value in test [1] is 551; in test [2], 627; in test [3] it was 570.

For the compound `O=C(c1cncc(Br)c1)N1CCC(N2CCCC2)CC1`, the “area under concentration-response curve” value in test [1] amounted to 489; in test [2], 440; in test [3], 528.

`O=C1CCc2ccc(OCCCCN3CCN(c4cccc(Cl)c4Cl)CC3)cc2N1`: the “area under concentration-response curve” value is 468 in test [1], 593 in test [2] and 544 in test [3].

On to `N#C/C(=C\c1ccc(O)c(O)c1)C(=O)NCc1ccccc1`, for which the “area under concentration-response curve” value worked out at 427 in test [1], 605 in test [2] and 572 in test [3].

Turning to `CNC(=O)[C@H](Cc1c[nH]c2ccccc12)NC(=O)[C@@H](CC(=O)NO)CC(C)C`, the “area under concentration-response curve” value in test [1] stood at 473; in test [2], 492; in test [3], 460.

Turning to `Nc1nccn2c1c(-c1cc3cccc(Cl)c3[nH]1)nc2[C@H]1CC[C@H](C(=O)O)CC1`, the “area under concentration-response curve” value in test [1] stood at 498; in test [2] it was 589; in test [3], 536.

`OC(=O)\C1=C\N(C2=CC=C(F)C=C2)C3=C(C=C(F)C(=C3)N4CCNCC4)C1=O`: the “area under concentration-response curve” value came to 485 in test [1], 549 in test [2] and 497 in test [3].

Regarding `NC1=NC(=C(C#N)C(=N1)N)N[C@@H](C2CC2)\C3=N\C4=C(C(=CC=C4F)Cl)C(=O)N3C5=CC=CN=C5`, the “area under concentration-response curve” value in test [1] came to 511; in test [2], 570; in test [3], 526.

With `Nc1nc(OCc2ccccc2)c2nc[nH]c2n1`, the “area under concentration-response curve” value turned out to be 432 in test [1], 479 in test [2] and 441 in test [3].

`O=c1cc(O)c(Cl)c[nH]1`: the entries for the “area under concentration-response curve” value in test [1], in test [2] and in test [3] were 558, 641 and 586, respectively.

For `CC1(C)CC(O)CC(C)(C)N1[O]`, the figures for the “area under concentration-response curve” value in test [1], in test [2] and in test [3] were 517, 626 and 511, respectively.

For `Cc1nc(-c2ccc(OCC(C)C)c(C#N)c2)sc1C(=O)O`, the “area under concentration-response curve” value in test [1] came out at 478; in test [2], 544; in test [3], 306.

On to `OC(COC1=C2C(=O)\C=C(/OC2=CC=C1)C([O-])=O)COC3=C4C(=O)\C=C(/OC4=CC=C3)C([O-])=O`, for which the “area under concentration-response curve” value came out at 527 in test [1], 624 in test [2] and 555 in test [3].

Take `Cc1nc(NC(=O)N2CCC[C@H]2C(N)=O)sc1-c1csc(C(C)(C)C)n1`: the “area under concentration-response curve” value stood at 414 in test [1], 445 in test [2] and 377 in test [3].

Regarding `Cn1cc(-c2ccc3ncc(Cc4ccc5ncccc5c4)n3n2)cn1`, the “area under concentration-response curve” value in test [1] stood at 450; in test [2] it was 545; in test [3], 497.

Turning to `CN1CCN(c2ccc(OC(F)(F)F)c(Nc3ncc4c(n3)-c3c(c(C(N)=O)nn3CCO)CC4)c2)CC1`, the “area under concentration-response curve” value was determined as 498 in test [1], 587 in test [2] and 460 in test [3].
